This assay deals with Daudi cells (AID positive). Nature of the assay: Compound primary screening: cell death in AID positive Daudi cells (Cell-Titer Glo, Day 7). Type of assay: cell-based. The settings on record: Homo sapiens, 168 h; Daudi cells, AID positive; cell death on Day 7, Cell-Titer Glo; read-out: Cellular activity in AID + (Daudi). The procedure: Example 149. Compound Primary Screening
AID expressing cells are dependent upon RAD51 for survival; inhibiting RAD51 in AID positive cells results in a cytotoxic effect.
A 96 well u-bottom plate was prepared by writing the experiment number, plate number, date and initials in the top right corner of the plate lid. With a sterile 300 ml reservoir, and 25 ml serological pipette, evaporation buffer media was pipetted into reservoir in 25 ml increments. Using the liquid handler, 150 ul of evaporation buffer media was pipetted from reservoir into rows A and H, and Columns 1 and 12 of the 96 well u-bottom plate. Cell cultures were counted to obtain the density of cells per ml, and the culture viability. The cell density information was used to obtain 1,000,000 cells from culture using a 5 mL serological pipette into an epi tube. The cell density information from the culture was used to calculate the number of cells and volume of media needed for the assay to seed 1250 cells in 130 ul of media per available culture well in the 96 well u-bottom plate. Rows B through F were used for cells (50 wells in total), with row G left for an empty media control. The calculation was overestimated by 10 mL to account for the dead volume in the 300 ml reservoir. Once the media volume was calculated, the appropriate volume of media was pipetted in 25 mL increments into the 250 mL bottle using a 25 mL serological pipette. The 250 ml bottle was capped tightly, and placed into a 37° C. water bath for 2 minutes. While the culture media was warming, 10 mL of fresh media was pipetted from the 500 mL culture media bottle into a sterile 25 mL reservoir. Using the Eppendorf multichannel pipette, 130 ul of media was pipetted from the 25 mL reservoir into row G of the 96 well u-bottom plate. Once the 250 mL bottle of media was warmed, the volume of culture needed was pipetted into the bottle, and mixed gently with a 25 mL serological pipette as to not create bubbles, and then the contents of the bottle were pipetted into a new 300 mL reservoir. Using the liquid handler, 130 ul of culture was pipetted from the 300 mL reservoir into rows B through F of the 96 well u-bottom plate. Once the culture was added, the plate was placed into a 37° C. incubator until the compound master plate was prepared for use.
Two 96 well u-bottom plates were prepared by writing the master plate name in the upper right corner of the plate lid. Labeling one DMSO master and the other Media Master. The compounds of interest were obtained from the laboratory freezer, and placed into a 25 well storage box with a lid, and set the box aside. The compounds were vortexed after thawing but before use. Using an automatic multichannel pipette, 20 ul of 100% DMSO was pipetted into wells B3-B11 through G3-G11 of the DMSO master plate. For each compound on the master plate, 50 ul of the compound were pipetted in the appropriate well of row 2 (reference plate map to determine appropriate well). A serial dilution was prepared beginning by aspirating 20 ul from row 2 and mixing with row 3, repeating until row 11 was reached. Using the liquid handler, 194 ul of Daudi media was dispensed into wells B2-B11 through G2-G11 of the Media master plate. Using the liquid handler, 6 ul from the DMSO master plate was aspirated and dispensed into the media master plate, mixing 100 ul twice.
Compounds from master plate were then added to the culture plate. The culture plates were removed from the incubator, and set inside the biosafety cabinet. Using a liquid handler, 20 ul from wells B2 to B11 through G2 to G11 of master plate were aspirated, and dispensed into wells B2 to B11 through G2 to G11 of culture plate. This set was continued with each culture plate. Once the culture plates acquired their 20 ul of compound dilutions, they were placed back into the incubator, until their reads on Day 7 of experiment.
Cell death was measured on Day 7 of the experiment using Cell-Titer Glo and a Promega Plate reader.
Take `CCNS(=O)(=O)c1cc(C(=O)NC(C)C)ccc1-c1cnc([C@H]2CC[C@H](NC(=O)OC(C)C)CC2)s1` [Compound 50, isopropyl (trans-4-(5-(2-(N-ethylsulfamoyl)-4-(isopropylcarbamoyl)phenyl)thiazol-2-yl)cyclohexyl)carbamate]: the EC50 is 100 to 1000 nM.
The result for `CCNS(=O)(=O)c1cc(COCC(C)C)ccc1-c1cnc([C@H]2CC[C@H](NC(=O)OC(C)C)CC2)s1` [Compound 51, isopropyl (trans-4-(5-(2-(N-ethylsulfamoyl)-4-(isobutoxymethyl)phenyl)thiazol-2-yl)cyclohexyl)carbamate] reads 100 to 1000 nM.
For the molecule `CCNS(=O)(=O)c1cc(COCC(C)C)ccc1-c1cnc([C@H]2CC[C@H](NC(=O)OC3COC3)CC2)s1` [Compound 52, oxetan-3-yl trans-N-[4-[5-[2-(ethylsulfamoyl)-4-(isobutoxy-methyl)phenyl]thiazol-2-yl]cyclohexyl]carbamate], the EC50 fell in the range of 100 to 1000 nM.
The value for `CC(C)OC(=O)N[C@H]1CC[C@H](c2ncc(-c3ccc(C#N)cc3S(=O)(=O)N3CCC3)s2)CC1` [Compound 54, isopropyl trans-N-[4-[5-[2-(azetidin-1-ylsulfonyl)-4-cyano-phenyl]thiazol-2-yl]cyclohexyl]carbamate] was 1000 to 10000 nM.
The value for `CCNS(=O)(=O)c1cc(Nc2ncc[nH]2)ccc1-c1cnc([C@H]2CC[C@H](NC(=O)OC(C)C)CC2)s1` [Compound 56, isopropyl trans-N-[4-[5-[2-(ethylsulfamoyl)-4-(1H-imidazol-2-ylamino)phenyl]thiazol-2-yl]cyclohexyl]carbamate] was below 100 nM; that for `CCNS(=O)(=O)c1cc(CC(=O)NC(C)C)ccc1-c1cnc([C@H]2CC[C@H](NC(=O)OC(C)C)CC2)s1` [Compound 58, isopropyl trans-N-[4-[5-[2-(ethylsulfamoyl)-4-[2-(isopropylamino)-2-oxo-ethyl]phenyl]thiazol-2-yl]cyclohexyl]carbamate] was 100 to 1000 nM.
On to `CCNS(=O)(=O)c1cc(CC(=O)NC(C)C)ccc1-c1cnc([C@H]2CC[C@H](NC(=O)OC3COC3)CC2)s1` [Compound 59, oxetan-3-yl (trans-4-(5-(2-(N-ethylsulfamoyl)-4-(2-(isopropylamino)-2-oxoethyl)phenyl)thiazol-2-yl)cyclohexyl)carbamate], for which the EC50 was in the range of 100 to 1000 nM.
With `CCNS(=O)(=O)c1cc(Nc2ncco2)ccc1-c1cnc([C@H]2CC[C@H](NC(=O)OC(C)C)CC2)s1` [Compound 60, isopropyl (trans-4-(5-(2-(N-ethylsulfamoyl)-4-(oxazol-2-ylamino)phenyl)thiazol-2-yl)cyclohexyl)carbamate], the EC50 was below 100 nM.
The value for `CCNS(=O)(=O)c1cc(C(=O)O)ccc1-c1cnc([C@H]2CC[C@H](NC(=O)OC3COC3)CC2)s1` [Compound 66, trans-3-(ethylsulfamoyl)-4-[2-[4-(oxetan-3-yloxy-carbonylamino)cyclohexyl]thiazol-5-yl]benzoic acid] was 1000 to 10000 nM; that for `CCNS(=O)(=O)c1cc(C(N)=O)ccc1-c1cnc([C@H]2CC[C@H](NC(=O)OC3COC3)CC2)s1` [Compound 67, oxetan-3-yl trans-N-[4-[5-[4-carbamoyl-2-(ethylsulfamoyl)phenyl]thiazol-2-yl]cyclohexyl]carbamate] was 1000 to 10000 nM; that for `CCNS(=O)(=O)c1cc(C(=O)NC(C)C)ccc1-c1cnc([C@H]2CC[C@H](NC(=O)OC3COC3)CC2)s1` [Compound 68, oxetan-3-yl (trans-4-(5-(2-(N-ethylsulfamoyl)-4-(isopropylcarbamoyl)phenyl)thiazol-2-yl)cyclohexyl)carbamate] was 100 to 1000 nM.
The value for `CCNS(=O)(=O)c1cc(NC2(C(C)C)COC2)ccc1-c1cnc([C@H]2CC[C@H](NC(=O)OC(C)C)CC2)s1` [Compound 69, isopropyl trans-N-[4-[5-[2-(ethylsulfamoyl)-4-[(3-isopropyloxetan-3-yl)amino]phenyl]thiazol-2-yl]cyclohexyl]carbamate] was below 100 nM; that for `CCNS(=O)(=O)c1cc(NC2(CC(C)C)COC2)ccc1-c1cnc([C@H]2CC[C@H](NC(=O)OC(C)C)CC2)s1` [Compound 70, isopropyl trans-N-[4-[5-[2-(ethylsulfamoyl)-4-[(3-isobutyloxetan-3-yl)amino]phenyl]thiazol-2-yl]cyclohexyl]carbamate] was 100 to 1000 nM.
In the case of `CCNS(=O)(=O)c1cc(C(=O)OC)ccc1-c1cnc([C@H]2CC[C@H](NC(=O)OC(C)C)CC2)s1` [Compound 71, methyl trans-3-(ethylsulfamoyl)-4-[2-[4-(isopropoxycarbonyl-amino)cyclohexyl]thiazol-5-yl]benzoate], the EC50 lay in the range of 1000 to 10000 nM.
In the case of `CCNS(=O)(=O)c1cc(CO)ccc1-c1cnc([C@H]2CC[C@H](NC(=O)OC(C)C)CC2)s1` [Compound 72, isopropyl trans-N-[4-[5-[2-(ethylsulfamoyl)-4-(hydroxymethyl)phenyl]thiazol-2-yl]cyclohexyl]carbamate], the EC50 fell in the range of 1000 to 10000 nM.
Regarding `CCNS(=O)(=O)c1cc(CNc2ncc[nH]2)ccc1-c1cnc([C@H]2CC[C@H](NC(=O)OC(C)C)CC2)s1` [Compound 73, isopropyl trans-N-[4-[5-[2-(ethylsulfamoyl)-4-[(1H-imidazol-2-ylamino)methyl]phenyl]thiazol-2-yl]cyclohexyl]carbamate], the EC50 was in the range of 1000 to 10000 nM.
The result for `CCNS(=O)(=O)c1cc(CNc2ncco2)ccc1-c1cnc([C@H]2CC[C@H](NC(=O)OC(C)C)CC2)s1` [Compound 74, isopropyl trans-N-[4-[5-[2-(ethylsulfamoyl)-4-[(oxazol-2-ylamino)methyl]phenyl]thiazol-2-yl]cyclohexyl]carbamate] reads 100 to 1000 nM; that for `CCNS(=O)(=O)c1cc(-c2ncc[nH]2)ccc1-c1cnc([C@H]2CC[C@H](NC(=O)OC(C)C)CC2)s1` [Compound 75, isopropyl trans-N-[4-[5-[2-(ethylsulfamoyl)-4-(1H-imidazol-2-yl)phenyl]thiazol-2-yl]cyclohexyl]carbamate], 1000 to 10000 nM; that for `CCNS(=O)(=O)c1cc(CC(=O)OC)ccc1-c1cnc([C@H]2CC[C@H](NC(=O)OC(C)C)CC2)s1` [Compound 76, methyl trans-2-[3-(ethylsulfamoyl)-4-[2-[4-(isopropoxycarbonylamino)cyclohexyl]thiazol-5-yl]phenyl]acetate], 1000 to 10000 nM.
On to `CCNS(=O)(=O)c1cc(CC(=O)O)ccc1-c1cnc([C@H]2CC[C@H](NC(=O)OC(C)C)CC2)s1` [Compound 77, trans-2-[3-(ethylsulfamoyl)-4-[2-[4-(isopropoxycarbonyl-amino)cyclohexyl]thiazol-5-yl]phenyl]acetic Acid], for which the EC50 lay in the range of 1000 to 10000 nM.
In the case of `CCNS(=O)(=O)c1cc(Cc2ncc[nH]2)ccc1-c1cnc([C@H]2CC[C@H](NC(=O)OC(C)C)CC2)s1` [Compound 78, isopropyl trans-N-[4-[5-[2-(ethylsulfamoyl)-4-(1H-imidazol-2-ylmethyl)phenyl]thiazol-2-yl]cyclohexyl]carbamate], the EC50 was in the range of 1000 to 10000 nM.
The value for `CCNS(=O)(=O)c1cc(CC(=O)NCc2ccccc2)ccc1-c1cnc([C@H]2CC[C@H](NC(=O)OC(C)C)CC2)s1` [Compound 79, isopropyl trans-N-[4-[5-[4-[2-(benzylamino)-2-oxo-ethyl]-2-(ethyl-sulfamoyl)phenyl]thiazol-2-yl]cyclohexyl]carbamate] was below 100 nM.

Source of the values: US11932636B2, “RAD51 inhibitors” (Cyteir Therapeutics, Inc., priority 2019, dated 2024).
